The values that follow come from ChEMBL document CHEMBL4823274, “Discovery of chiral N-2'-aryletheryl-1'-alkoxy-ethyl substituted arylisoquinolones with anti-inflammatory activity from the nucleophilic addition reactions of the thiophenols and oxazolinium” (Eur J Med Chem, 2021).

Calls of active or inactive are those of the source. The rule behind the calls is not given here.

In data set [1] the test system is RAW264.7. The data set is described as follows: Antiinflammatory activity against LPS-stimulated mouse RAW264.7 cells assessed inhibition of TNFalpha release at 0.5 uM incubated for 24 hrs in presence of LPS by ELISA. Format: functional. A general note: In an ELISA, binding on a coated surface is turned into a signal by an enzyme label.
The nature of data set [2]: Cytotoxicity against mouse RAW264.7 cells assessed as cell viability at 0.5 uM incubated for 24 hrs by CCK8 assay. The settings on record: read-out: Activity. Format: cell-based. (Tetrazolium assays rely on reduction of a dye to a coloured formazan, in cell work by metabolically active cells.)
The target of data set [3] is T1, Estrogen receptor beta (Homo sapiens, UniProt Q92731). Nature of the data set: Binding affinity to human ERbeta LBD measured after 2 hrs by competitive fluorometric binding assay relative to 17beta-estradiol.
Data set [4] addresses T2, Estrogen receptor (Homo sapiens) (UniProt P03372).
T2 sequence (whole entry): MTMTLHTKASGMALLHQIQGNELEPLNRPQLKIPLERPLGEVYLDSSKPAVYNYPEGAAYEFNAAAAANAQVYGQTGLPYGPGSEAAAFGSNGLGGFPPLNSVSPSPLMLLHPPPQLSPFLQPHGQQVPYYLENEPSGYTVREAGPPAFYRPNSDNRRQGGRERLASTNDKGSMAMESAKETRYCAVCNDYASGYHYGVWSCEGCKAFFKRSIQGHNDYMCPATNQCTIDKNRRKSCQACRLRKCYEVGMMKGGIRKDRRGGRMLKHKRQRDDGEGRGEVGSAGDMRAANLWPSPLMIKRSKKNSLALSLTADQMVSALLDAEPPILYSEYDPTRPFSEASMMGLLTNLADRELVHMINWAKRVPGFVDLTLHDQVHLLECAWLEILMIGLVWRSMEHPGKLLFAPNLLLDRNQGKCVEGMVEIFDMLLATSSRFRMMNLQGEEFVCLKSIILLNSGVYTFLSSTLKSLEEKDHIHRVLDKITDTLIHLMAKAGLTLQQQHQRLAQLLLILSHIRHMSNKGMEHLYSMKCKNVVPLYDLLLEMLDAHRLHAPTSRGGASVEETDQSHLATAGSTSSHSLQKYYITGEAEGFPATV
Nature of the data set: Binding affinity to human ERalpha LBD measured after 2 hrs by competitive fluorometric binding assay relative to 17beta-estradiol.

Data set [5] concerns the target T1, Estrogen receptor beta. The data set is described as follows: Binding affinity to human ERbeta LBD measured after 2 hrs by competitive fluorometric binding assay.
The target in data set [6] is T3, Estrogen receptor (Homo sapiens, UniProt P03372).
T3 sequence (P03372 whole entry): T2 sequence (whole entry)
The data set is described as follows: Binding affinity to human ERalpha LBD measured after 2 hrs by competitive fluorometric binding assay.

Data set [7] is filed under the species Homo sapiens. Nature of the data set: Selectivity ratio of relative binding affinity for human ERalpha LBD to relative binding affinity for human ERbeta LBD.
Data set [8] concerns RAW264.7. The data set is described as follows: Antiinflammatory activity against LPS-stimulated mouse RAW264.7 cells assessed inhibition of TNFalpha release incubated for 24 hrs in presence of LPS by ELISA. Format: functional, cell-based. The following applies: RAW264.7, 24 h.
The nature of data set [9]: Cytotoxicity against mouse RAW264.7 cells assessed as reduction in cell viability incubated for 24 hrs by CCK8 assay. Format: cell-based.
The test system of data set [10] is Mus musculus. Nature of the data set: Antiinflammatory activity against DSS-induced ulcerative colitis C57BL/6J mouse model assessed as reduction in disease activity index at 30 mg/kg, po administered daily via gavage and measured for 11 days. The following applies: time 11.0 day. Format: functional, organism-based.
Data set [11] concerns Mus musculus. The data set is described as follows: Antiinflammatory activity against DSS-induced ulcerative colitis C57BL/6J mouse model assessed as reduction in fecal occult blood at 30 mg/kg, po administered daily via gavage and measured for 11 days. Format: functional, organism-based. The settings on record: time 11.0 day.
Data set [12] has as its system Mus musculus. The data set is described as follows: Antiinflammatory activity against DSS-induced ulcerative colitis C57BL/6J mouse model assessed as restoration of normal stool consistency at 30 mg/kg, po administered daily via gavage and measured for 11 days. Format: functional, organism-based. The settings on record: time 11.0 day.
Data set [13] is filed under the species Homo sapiens. The data set is described as follows: Selectivity ratio of Ki for human ERalpha LBD to Ki for human ERbeta LBD.
In data set [14] the test system is Mus musculus. Nature of the data set: Antiinflammatory activity against DSS-induced ulcerative colitis C57BL/6J mouse model assessed as reduction in body weight loss at 30 mg/kg, po administered daily via gavage and measured for 11 days. Format: functional, organism-based. The following applies: time 11.0 day.

T1 sequence (Q92731 whole entry, the tested form may be a part): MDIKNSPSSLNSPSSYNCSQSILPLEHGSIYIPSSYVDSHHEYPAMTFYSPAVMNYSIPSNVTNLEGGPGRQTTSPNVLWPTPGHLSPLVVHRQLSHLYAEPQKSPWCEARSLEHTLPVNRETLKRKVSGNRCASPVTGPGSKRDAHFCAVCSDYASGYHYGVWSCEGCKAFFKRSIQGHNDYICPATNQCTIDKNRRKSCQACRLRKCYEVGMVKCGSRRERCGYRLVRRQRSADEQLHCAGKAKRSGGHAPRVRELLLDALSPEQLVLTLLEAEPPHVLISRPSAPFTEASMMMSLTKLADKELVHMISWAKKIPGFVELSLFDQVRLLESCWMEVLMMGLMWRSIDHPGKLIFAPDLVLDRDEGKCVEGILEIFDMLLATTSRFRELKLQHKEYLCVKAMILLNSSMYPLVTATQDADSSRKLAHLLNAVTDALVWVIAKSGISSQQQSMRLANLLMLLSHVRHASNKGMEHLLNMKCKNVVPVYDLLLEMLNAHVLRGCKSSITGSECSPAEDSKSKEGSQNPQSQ

Turning to `COc1ccc2cc(-c3ccc4c(c3)OCO4)n(C(CSc3ccc(C)cc3)OC)c(=O)c2c1OC` (centres undefined), the inhibition at 0.5 µM in data set [1] amounted to 79.6%. The viability at 24 h, 0.5 µM in data set [2] turned out to be 70.4%.

For `COc1ccc2cc(-c3ccc4c(c3)OCO4)n(C(CSc3ccccc3Br)OC)c(=O)c2c1OC` (centres undefined), the inhibition at 0.5 µM in [1] came to 80.7%. Also, in data set [2], the viability at 24 h, 0.5 µM came to 80.7%.

As to `COc1ccc2cc(-c3ccc4c(c3)OCO4)n(C(CSc3cccc(Br)c3)OC)c(=O)c2c1OC` (centres undefined), the inhibition at 0.5 µM in [1] was found to be 36.1%. Also, in data set [2], the viability at 24 h, 0.5 µM worked out at 57%.

With `COc1ccc2cc(-c3ccc4c(c3)OCO4)n([C@H](COc3ccc([N+](=O)[O-])cc3)OC)c(=O)c2c1OC`, the RBA in data set [3] and in [4] was 0.03% in each case. Also, the inhibitory constant (Ki) in [5] was 25600 nM; in [6], 17100 nM. Moreover, the Ratio in [7] amounted to 1. Moreover, in [8], the IC50 is above 10000 nM. Also, the half-maximal cytotoxic concentration (CC50) at 24 h in data set [9] is above 2500 nM.

Turning to `COc1ccc2cc(-c3ccc4c(c3)OCO4)n([C@@H](CSc3ccc([N+](=O)[O-])cc3)OC)c(=O)c2c1OC`, the IC50 in data set [8] stood at 56 nM. In data set [9], the CC50 at 24 h came to 7040 nM.

In the case of `COc1ccc2cc(-c3ccc4c(c3)OCO4)n(C(CSc3ccc(F)cc3)OC)c(=O)c2c1OC` (centres undefined), the inhibition at 0.5 µM in data set [1] stood at 77.4%. Also, the viability at 24 h, 0.5 µM in data set [2] amounted to 77.8%.

As to `COc1ccc2cc(-c3ccc4c(c3)OCO4)n(C(CSc3nc(C)cc(C)n3)OC)c(=O)c2c1OC` (centres undefined), the inhibition at 0.5 µM in [1] came to 69.7%. The viability at 24 h, 0.5 µM in [2] amounted to 101%.

As to `COc1ccc2cc(-c3ccc4c(c3)OCO4)n([C@@H](COc3ccc([N+](=O)[O-])cc3)OC)c(=O)c2c1OC`, the result in data set [10], in data set [11], in data set [12] and in data set [14] was Active. Besides, the RBA stood at 1.04% in [3] and 0.24% in data set [4]. Further, the inhibitory constant (Ki) in data set [5] is 761 nM; in [6], 2320 nM. For the same compound, the Ratio Ki in [13] is 3. For the same compound, the Ratio in data set [7] was 0.23. The IC50 in data set [8] amounted to 14 nM. The CC50 at 24 h in data set [9] came out at 1820 nM.

For the compound `COc1ccc2cc3[n+](cc2c1OC)CCc1cc2c(cc1-3)OCO2` [BERBERINE], the inhibition at 0.5 µM in data set [1] stood at 4.1%. Also, in data set [2], the viability at 24 h, 0.5 µM came to 129%.

Consider `COc1ccc2cc(-c3ccc4c(c3)OCO4)n(C(CSc3ccc(C(F)(F)F)cc3)OC)c(=O)c2c1OC` (centres undefined), for which, in data set [1], the inhibition at 0.5 µM turned out to be 72.9%. The viability at 24 h, 0.5 µM in data set [2] stood at 98%.

Turning to `COc1ccc2cc(-c3ccc4c(c3)OCO4)n(C(CSc3ccc(Br)cc3)OC)c(=O)c2c1OC` (centres undefined), the inhibition at 0.5 µM in data set [1] was determined as 84.5%. Besides, the viability at 24 h, 0.5 µM in [2] was 70.9%.

In the case of `COc1ccc2cc(-c3ccc4c(c3)OCO4)n([C@H](CSc3ccc([N+](=O)[O-])cc3)OC)c(=O)c2c1OC`, in data set [8], the half-maximal inhibitory concentration (IC50) was above 2500 nM. The cytotoxic concentration (CC50) at 24 h in [9] was above 2500 nM.

`COc1ccc2cc(-c3ccc4c(c3)OCO4)n(C(CSc3ccccc3)OC)c(=O)c2c1OC` (centres undefined): the inhibition at 0.5 µM in [1] is 49.4%. Besides, the viability at 24 h, 0.5 µM in data set [2] is 85.4%.

On to `COc1ccc2cc(-c3ccc4c(c3)OCO4)n(C(CSc3cc(C(F)(F)F)cc(C(F)(F)F)c3)OC)c(=O)c2c1OC` (centres undefined), for which the inhibition at 0.5 µM in data set [1] was 78.3%. For the same compound, in data set [2], the viability at 24 h, 0.5 µM stood at 82.8%.

Take `COc1ccc2cc(-c3ccc4c(c3)OCO4)n(C(CSc3ccc([N+](=O)[O-])cc3)OC)c(=O)c2c1OC` (centres undefined): the inhibition at 0.5 µM in data set [1] is 87.8%. For the same compound, the viability at 24 h, 0.5 µM in [2] stood at 80.1%.

As for `COc1ccc2cc(-c3ccc4c(c3)OCO4)n(C(CSc3cccc(C(F)(F)F)c3)OC)c(=O)c2c1OC` (centres undefined), in data set [1], the inhibition at 0.5 µM stood at 69.2%. The viability at 24 h, 0.5 µM in data set [2] amounted to 93.3%.

Turning to `COc1ccc(SCC(OC)n2c(-c3ccc4c(c3)OCO4)cc3ccc(OC)c(OC)c3c2=O)cc1` (centres undefined), the inhibition at 0.5 µM in data set [1] is -3.4%. The viability at 24 h, 0.5 µM in data set [2] was 80.8%.

As usually defined, the inhibition is the change of the read-out against control, counted positive when it falls. What is called Ki is a measure of affinity in units of concentration, obtained from inhibition or displacement. Lower therefore signals a stronger hold on the target. What is called IC50 is the concentration at which inhibition is half-maximal. One may read the CC50 as the concentration giving 50% cytotoxicity.
